Laboratory results: EPA's ToxValDB 9.5 (doi:10.2903/j.efsa.2014.3677)
In brackets after ≈: the same amount, converted by molar mass. Several values for one entry are separate records, joined by “and”; a condition that tells them apart may be missing. Equal entries are not always repeated.

Tests used:
[1] = system: Anas platyrhynchos
[2] = system: Apis mellifera; settings: acute, mortality
[3] = system: Bibionidae; settings: chronic/long-term; duration: 28 days
[4] = system: Canidae; settings: chronic; duration: 1 years; oral; Dog Other; clinical signs
[5] = system: Colinus virginianus; settings: acute; oral; diet
[6] = system: Folsomia candida; settings: chronic/long-term
[7] = system: Hyalella azteca; settings: acute; duration: 48 hours; mortality
[8] = system: Leuciscus idus; settings: acute; duration: 96 hours; mortality
[9] = system: Mus musculus; settings: acute; oral
[10] = system: Neomysis kadiakensis; settings: chronic/long-term; duration: 28 days
[11] = system: Pimephales promelas; settings: chronic/long-term; duration: 300 days
[12] = system: Plant; settings: not reported
[13] = system: Rattus norvegicus; settings: reproduction developmental; body weight
[14] = system: Tagia sp.
[15] = system: Aphidius rhopalosiphi; experiment: LR50; higher = less toxic; settings: not reported; mortality
[16] = system: Typhlodromus pyri; experiment: LR50; higher = less toxic; settings: not reported; mortality

Question: How did the LD50 ([1]; acute, oral, unspecified) turn out when `CC1(C)[C@H](/C=C(\Cl)C(F)(F)F)[C@@H]1C(=O)O[C@@H](C#N)c1cccc(Oc2ccccc2)c1` [lambda-Cyhalothrin] was run?
Answer: Its LD50 is 3950 mg/kg-day.

Question: What about the NOEC ([1]; reproductive) of the same compound?
Answer: Its NOEC is 3.3 mg/kg-day.

Question: What about the LD50 ([2]; dermal) of the same compound?
Answer: Its LD50 is 0.038 µg/piece.

Question: And the LD50 ([2]; oral, unspecified)?
Answer: Its LD50 is 0.91 µg/piece.

Question: What about the NOEC [3] of the same compound?
Answer: Its NOEC is 0.13 µg/L.

Question: What about the NOAEL [4] of the same compound?
Answer: Its NOAEL is 0.5 mg/kg-day.

Question: What about the LD50 [5] of the same compound?
Answer: The LD50 was greater than 530 mg/kg-day.

Question: And the NOEC [6]?
Answer: Its NOEC is 2.73 mg/kg.

Question: What about the LC50 [7] of the same compound?
Answer: The LC50 was 0.0019 ng/mL (≈ 0.00422 nM).

Question: And the LC50 [8]?
Answer: Its LC50 is 0.078 ng/mL (≈ 0.173 nM).

Question: And the LD50 [9]?
Answer: Its LD50 is 20 mg/kg-day.

Question: What about the NOEC [10] of the same compound?
Answer: Its NOEC is 0.00022 µg/L.

Question: What about the NOEC [11] of the same compound?
Answer: The NOEC was 0.031 µg/L.

Question: And the NOEC [12]?
Answer: The NOEC was 7.5 g/ha.

Question: What about the NOAEL [13] of the same compound?
Answer: Its NOAEL is 0.5 mg/kg-day and 0.25 mg/kg-day.

Question: What about the LC50 ([14]; acute, mortality) of the same compound?
Answer: The LC50 was greater than 500 mg/kg.

Question: What about the NOEC ([14]; chronic/long-term) of the same compound?
Answer: The NOEC was 3.12 mg/kg.

Question: What about the LR50 [15] of the same compound?
Answer: The LR50 was 1.06 g/ha.

Question: What about the LR50 [16] of the same compound?
Answer: Its LR50 is 0.0037 g/ha.
